Test results as given in the supplement of paper PMC12137928.
Structures can show the parent of a compound that is named as a salt.

System: HCT116
Conditions: 72 h
In short: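 HCT116 cells were plated at 250 per well in 1536-well plates and allowed 5 h to attach. CellTiter-Glo luminescence was normalized to vehicle as 0% and positive control as -100%, followed by pattern correction. Four-parameter Hill fits provided IC50 and maximal efficacy.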

Row | SMILES | IC50 cell viability (ICRF193 0 nM) [µM] | IC50 cell viability (ICRF193 200 nM) [µM]
1 | CC(C)C(=O)c1c(C(C)C)nn2ccccc12 [Ibudilast] | > 45.8 | > 45.8
2 | COC(=O)N[C@H](C(=O)N1CCC[C@H]1C(=O)Nc1ccc([C@@H]2CC[C@@H](c3ccc(NC(=O)[C@@H]4CCCN4C(=O)[C@@H](NC(=O)OC)C(C)C)cc3)N2c2ccc(C(C)(C)C)cc2)cc1)C(C)C [Ombitasvir] | > 45.8 | > 45.8
3 | CO[C@@H]1[C@@H](OC(N)=O)[C@@H](O)[C@H](Oc2ccc3c(O)c(NC(=O)c4ccc(O)c(CC=C(C)C)c4)c(=O)oc3c2C)OC1(C)C [Novobiocin sodium] | > 45.8 | > 45.8
4 | COCC1=C(C(=O)OC(C)OC(=O)OC(C)C)N2C(=O)[C@@H](NC(=O)/C(=N\OC)c3csc(N)n3)[C@H]2SC1 (some centres not stated) [CEFPODOXIME PROXETIL] | > 45.8 | > 45.8
5 | C[C@]12C=CC(=O)C=C1CC[C@@H]1[C@@H]2C(=O)C[C@@]2(C)[C@H]1CC[C@]2(O)C(=O)CO [Prednisone] | > 45.8 | > 45.8
6 | CC#C[C@]1(O)CC[C@H]2[C@@H]3CCC4=CC(=O)CCC4=C3[C@@H](c3ccc(N(C)C)cc3)C[C@@]21C [Mifepristone] | > 45.8 | > 45.8
7 | CCC(=O)O[C@@H]1CC(=O)O[C@H](C)C/C=C/C=C/[C@H](O)[C@H](C)C[C@H](CC=O)[C@H](O[C@@H]2O[C@H](C)[C@@H](O[C@H]3C[C@@](C)(O)[C@@H](OC(=O)CC)[C@H](C)O3)[C@H](N(C)C)[C@H]2O)[C@H]1OC [Midecamycin] | > 45.8 | > 45.8
8 | C[C@H](/C=C/[C@H](C)C(C)(C)O)[C@H]1CC[C@H]2/C(=C/C=C3C[C@@H](O)C[C@H](O)C3)CCC[C@]12C [Paricalcitol-D6] | > 45.8 | > 45.8
9 | O=c1ccc2cc(O[C@@H]3O[C@H](CO)[C@@H](O)[C@H](O)[C@H]3O)c(O)cc2o1 [Esculin hydrate] | > 45.8 | > 45.8
10 | CC1CCCCN1CCCOC(=O)c1ccc(OC2CCCCC2)cc1 (configuration not stated) [Cyclomethycaine] | > 45.8 | > 45.8
11 | CC(=O)O[C@H]1C[C@@H]2CC[C@@H]3[C@H](CC[C@@]4(C)[C@H]3C[C@H](N3CC[N+](C)(C)CC3)[C@@H]4OC(C)=O)[C@@]2(C)C[C@@H]1N1CC[N+](C)(C)CC1 [Pipecuronium bromide] | > 45.8 | > 45.8
12 | O=C(O)c1ccc(OCCCOc2ccc(C(=O)O)cc2)cc1 [1,3-Bis(4-carboxyphenoxy)propane] | > 45.8 | > 45.8
13 | CC(=O)OCC(=O)[C@@]1(O)[C@H](C)C[C@H]2[C@@H]3C[C@H](F)C4=CC(=O)C=C[C@]4(C)[C@@]3(F)[C@@H](O)C[C@@]21C [Flumethasone acetate] | > 45.8 | > 45.8
14 | N=C1CCCN1Cc1[nH]c(=O)[nH]c(=O)c1Cl [Tipiracil] | > 45.8 | > 45.8
15 | O=C(CCCCC(=O)Nc1c(I)cc(I)c(C(=O)O)c1I)Nc1c(I)cc(I)c(C(=O)O)c1I [Iodipamide] | > 45.8 | > 45.8
16 | CO[C@H]1[C@@H](O)[C@H](N)[C@@H](O[C@H]2O[C@H]([C@H](C)N)CC[C@H]2N)[C@H](O)[C@@H]1N(C)C(=O)CN [Astromicin] | > 45.8 | > 45.8
17 | C=C1/C(=C\C=C2/CCC[C@]3(C)[C@@H]([C@H](C)/C=C/C=C/C(O)(CC)CC)CC[C@@H]23)C[C@@H](O)C[C@@H]1O [Seocalcitol] | > 45.8 | > 45.8
18 | NC(=O)c1cc[n+](CC2=C(C(=O)[O-])N3C(=O)[C@@H](NC(=O)[C@@H](c4ccccc4)S(=O)(=O)O)[C@H]3SC2)cc1 [Cefsulodin Sodium Salt] | > 45.8 | > 45.8
19 | COc1cnc(NS(=O)(=O)c2ccc(N)cc2)nc1 [Sulfameter] | > 45.8 | > 45.8
20 | C[C@]12CCC(=O)C=C1CC[C@@H]1[C@@H]2[C@@H](O)C[C@@]2(C)[C@H]1CC[C@]2(O)C(=O)CO [Hydrocortisone] | > 45.8 | > 45.8
21 | OCCCNc1ccccc1 [3-Anilinopropan-1-ol] | > 45.8 | > 45.8

Row | SMILES | IC50 cell viability (ICRF193 0 nM) [µM] | IC50 cell viability (ICRF193 200 nM) [µM]
22 | CCCCOC(=O)c1ccc(O)cc1 [Butylparaben] | > 45.8 | > 45.8
23 | CCCCCCCCCCC(=O)O[C@H]1CC[C@H]2[C@@H]3CCC4=CC(=O)CC[C@]4(C)[C@H]3CC[C@]12C [Testosterone (undecanoate)] | > 45.8 | > 45.8
24 | Nc1ccc(S(=O)(=O)Nc2ccnn2-c2ccccc2)cc1 [Sulfaphenazole] | > 45.8 | > 45.8
25 | CC(=O)CC/C=C(\C)CC/C=C(\C)CC/C=C(\C)CCC=C(C)C [Teprenone] | > 45.8 | > 45.8
26 | O=S(=O)(c1cccc2cnccc12)N1CCCNCC1 [Fasudil] | > 45.8 | > 45.8
27 | NC(=O)NO [Hydroxyurea] | > 45.8 | > 45.8
28 | C[C@@H](O)[C@@H]1NC(=O)[C@H](CCCCN)NC(=O)[C@@H](Cc2c[nH]c3ccccc23)NC(=O)[C@H](Cc2ccccc2)NC(=O)[C@@H](NC(=O)[C@H](N)Cc2ccccc2)CSSC[C@@H](C(=O)N[C@H](CO)[C@@H](C)O)NC1=O [Octreotide acetate] | > 45.8 | > 45.8
29 | Cc1ccc(NC(=O)C2(c3ccc4c(c3)OC(F)(F)O4)CC2)nc1-c1cccc(C(=O)O)c1 [Lumacaftor] | > 45.8 | > 45.8
30 | c1ccc2sc(SN3CCOCC3)nc2c1 [N-Oxydiethylenebenzothiazole-2-sulfenamide] | > 45.8 | > 45.8
31 | CCc1cc(C(N)=S)ccn1 [Ethionamide] | > 45.8 | > 45.8
32 | COc1ccc(CNc2nc(N3CCC[C@H]3CO)ncc2C(=O)NCc2ncccn2)cc1Cl [Avanafil] | > 45.8 | > 45.8
33 | CCOC(=O)[C@H](CS)NCCN[C@@H](CS)C(=O)OCC [Bicisate dihydrochloride] | > 45.8 | > 45.8
34 | O=NN(CCCl)C(=O)NCCCl [Carmustine] | > 45.8 | > 45.8
35 | CNC(=C[N+](=O)[O-])NCCSCc1csc(CN(C)C)n1 [Nizatidine] | > 45.8 | > 45.8
36 | O=c1[nH]cnc2c([C@@H]3N[C@H](CO)[C@@H](O)[C@H]3O)c[nH]c12 [Forodesine (hydrochloride)] | > 45.8 | > 45.8
37 | CCCc1nc2c(C)cc(-c3nc4ccccc4n3C)cc2n1Cc1ccc(-c2ccccc2C(=O)O)cc1 [Telmisartan] | > 45.8 | > 45.8
38 | CC(=O)Nc1cc([As](=O)(O)O)ccc1O [Acetarsol] | > 45.8 | > 45.8
39 | CCCN(CCC)S(=O)(=O)c1ccc(C(=O)O)cc1 [Probenecid] | > 45.8 | > 45.8
40 | CN1C(=O)OC(C)(C)C1=O [Trimethadione] | > 45.8 | > 45.8
41 | Nc1ccc(S(=O)(=O)Nc2ccccn2)cc1 [Sulfapyridine] | > 45.8 | > 45.8
